# According to patent EP4458804A1, “METHOD FOR PRODUCING AN OBJECT, PHENALEN-1-ONE COMPOUND AND USE THEREOF” (TriOptoTec GmbH, priority 2023, dated 2024):
# Experiment: Comparative example 26: highly polar photocatalysts in TPU films, 24 h immersion, film absorption before/after leaching
# Assay type: physicochemical
# Settings: 30 min impregnation, 20h airing, immersion in distilled water 24h (procedure A), film absorption maximum before/after
# Experimental: Es wurden TPU Folien eingesetzt und mit Imprägnierlösungen enthaltend die folgenden Farbstoffe behandelt. Nach 30 min Einwirkzeit wurden homogen gefärbte Folien erhalten.
# Die Ablüftzeit nach Behandlung betrug 20h.
# Anschließend wurde ein Belastungstest Immersion mit destilliertem Wasser über 24h durchgeführt (siehe oben beschriebenes Verfahren A) ). Die Folien wurden durch Absorptionsspektroskopie direkt vermessen und die Maximum der Absorption vor/nach Auswaschen verglichen. Es ergaben sich folgende relative Werte, die auf einen starken Austrag der Photokatalysatoren schließen lassen. Die Ergebnisse sind in der Tabelle 63 dargestellt. Tabelle 63: Einbindung von Photokatalysatoren in Kunsttofffolien
row,Compound,Verlust durch Auswaschen
1,Cl.Cl.Cl.Cl.Cl.Cl.NCCOc1cc(/C=C/C(=O)CC(=O)/C=C/c2cc(OCCN)c(OCCN)c(OCCN)c2)cc(OCCN)c1OCCN [SACUR-05],> 70%
2,O=C1C=Cc2cccc3cccc1c23 [Phenalen-1-on (Verb.Bsp. 48)],> 50%
3,"2,7,12-Tris(pyridinio-p-tolyl)-17-(p-(methoxymethyl)phenyl) porphycen bromid",> 66%
